Columns and labels:
[1] = tested on: dystrophic mdx mice; settings: injection; mostly via activation of TRPV1 and TRPA1; cited from earlier work
[2] = tested on: patients with myotonia; test: Disease history: previous treatments for myotonia and myalgia (case reports); settings: for effect of previous treatment on myotonia, patient 6: CLCN1-congenital myotonia; for effect of previous treatment on myotonia, patient 6 / outcome of previous treatment of myotonia, patient 2 / outcome of previous treatment of myalgia, patient 2: disease history; for outcome of previous treatment of myotonia, patient 2 / outcome of previous treatment of myalgia, patient 2: DM2
From the text: This person was diagnosed with DM2. As DM2-related comorbidities they have diabetes mellitus type 2 without diabetic neuropathy, and controlled paroxysmal atrial fibrillation. Their main muscular complaints have always been a severe grip myotonia and myotonia of the legs while walking, as well as persistent myalgia especially at lower back. In the last several years they developed a proximal and axial muscle weakness (MRC grade 4). […] After discussing potential risks and benefits, a compassionate use with low dose CBD/THC has been started.
This person was diagnosed with CLCN1-congenital myotonia. They have a severe therapy-resistant grip and generalized myotonia.

| Structure (SMILES) | effect of previous treatment on myotonia, patient 6 [2] | outcome of previous treatment of myotonia, patient 2 [2] | outcome of previous treatment of myalgia, patient 2 [2] | other results |
| --- | --- | --- | --- | --- |
| C=C(C)[C@@H]1CCC(C)=C[C@H]1c1c(O)cc(CCCCC)cc1O [CBD, Cannabidiol] | – | – | – | myotube formation and inflammation [1]: promoted myotube formation and reduced inflammation |
| NC(=O)N1c2ccccc2C=Cc2ccccc21 [carbamazepine] | no relevant improvement of myotonia was obtained | suspended due to inefficacy and risk of cardiac arrhythmias | – | – |
| O=C(NCC1CCCCN1)c1cc(OCC(F)(F)F)ccc1OCC(F)(F)F (stereo not shown) [flecainid] | no relevant improvement of myotonia was obtained | – | – | – |
| CC(C)Cc1ccc(C(C)C(=O)O)cc1 (stereo not shown) [ibuprofen] | – | – | unsuccessfully treated | – |
| Nc1nnc(-c2cccc(Cl)c2Cl)c(N)n1 [lamotrigine] | no relevant improvement of myotonia was obtained | – | – | – |
| COc1ccccc1OCC(O)COC(N)=O (stereo not shown) [methocarbamol] | – | – | unsuccessfully treated | – |
| Cc1cccc(C)c1OCC(C)N (stereo not shown) [mexiletine] | improved the myotonia | suspended due to inefficacy and risk of cardiac arrhythmias | – | drug-related side effect of previous treatment, patient 6 ([2]; resolved on drug discontinuation): severe major depression |
| CC(C)C[C@H](CN)CC(=O)O [pregabalin] | – | suspended due to inefficacy and risk of cardiac arrhythmias | unsuccessfully treated | – |
| Cc1ccc(C(=O)C(C)CN2CCCCC2)cc1 (stereo not shown) [tolperisone] | no relevant improvement of myotonia was obtained | – | – | – |

Source: patent publication US10702495B2, “Method and compositions for treating dystrophies and myotonia” (priority 2017, dated 2020)
